# Test results from patent US20230089916A1, “IRAK DEGRADERS AND USES THEREOF” (Kymera Therapeutics, Inc., priority 2019, published 2023).
# Tests used:
# Format in all cases: cell-based
# SU-DHL6 cells (MYD88 WT) = experiment: Cell viability (CTG) with SU-DHL6; details: Homo sapiens, SU-DHL-6; MYD88 WT line
# U2932 cells (MYD88 WT) = experiment: Cell viability (CTG) with U2932; details: Homo sapiens, MYD88 WT line
# [1] = test system: SU-DHL2 cells (MYD88 mutant); experiment: Cell viability (CTG) with SU-DHL2; details: Homo sapiens, SU-DHL-2; MYD88 mutant line
# [2] = test system: OCI-LY19 cells (MYD88 WT); experiment: Cell viability (CTG) with OCI-LY19; details: Homo sapiens, MYD88 WT line
# [3] = test system: OCI-LY10 cells (MYD88 mutant); experiment: Cell viability assay (CellTiter-Glo) with OCI-LY10; details: Homo sapiens, MYD88 mutant line, read-out: OCI-LY10 Viability, CTG IC50
# Procedure: Compound-mediated viability effect on OCI-LY10 or TMD8 was quantitatively determined using the CellTiter-Glo® Luminescent Cell Viability Assay kit from Promega (Catalog number G7570) following manufacturer's recommended procedures. Briefly, OCI-LY10 or TMD8 cells were seeded into 384 well plates (Grenier Bio-One, Catalog number 781080) with a density of 10,000 cells per well. Compounds were then added to the assay plate with final top concentration of 10 μM and 1:3 dilution series with total of 9 doses. The final DMSO concentration was normalized to 0.2%. The assay plates were incubated at 37° C. for 4 days under 5% CO2. Then the assay plate was equilibrated at room temperature for 10 minutes. To determine cell viability, 30 μL CellTiter Glo reagent was added to each well and the assay plate was centrifuged at 1000 rpm for 30 second, incubated at room temperature for 10 min, and analyzed by detecting the luminescence using a multimode plate reader (EnVision 2105, PerkinElmer). The data was then analyzed by software Prism 7.0 from GraphPad and the dose response curves were fit using a three-parameter logistic equation to calculate IC50.
smiles,measurement,setting,value
CC[C@@H]1CC(=O)N[C@@H]1COc1ncc(C#C[C@H]2CC[C@H](CN3CCC(OCCCc4cccc5c4n(C)c(=O)n5C4CCC(=O)NC4=O)CC3)CC2)c2cc(C(N)=O)c(OC)cc12 (some centres unmarked) [I-1],IC50,SU-DHL6 cells (MYD88 WT),4.1 µM
same,IC50,U2932 cells (MYD88 WT),> 10 µM
same,IC50,[1],> 10 µM
same,IC50,[2],> 10 µM
same,IC50,[3],3.5 µM
